From patent publication US10317393B2, “Alkynyl sugar analogs for labeling and visualization of glycoconjugates in cells” (Academia Sinica, priority 2007, dated 2019) come the findings set out here.

One experiment concerns H. pylori. Nature of the experiment: Labeling and detection of fucosylated glycoconjugates in H. pylori (immunoprecipitation, SDS-PAGE, protein blot). Type of experiment: cell-based, Helicobacter pylori. As to the method:
Representative H. pylori strains isolated from human gastric biopsy specimens, including gastritis (HS), duodenal ulcer (HD), gastric ulcer (HU) and gastric cancer (HC), were subjected to MOE: all the strains were grown on CDC agar plate supplemented with 200 micromolar derivatized alkynyl Fuc 1 for two days under micro-aerobic atmosphere (5% O2, 15% CO2, 80% N2). […] Immunoprecipitates were then analyzed by SDS-PAGE and stained for visualization. […]
Protein extracts were prepared in lysis buffer (1% NP-40, 150 mM NaCl, 100 mM sodium phosphate pH 7.5, 1×EDTA-free protease inhibitor cocktail) and labeled with biotin probe 6 (protein 1 mg/ml with 0.1 mM azido biotin 6/0.1 mM Tris-thiazoleamine catalyst/1 mM CuSO4/2 mM sodium ascorbate in lysis buffer) via cycloaddition at room temperature for 1 h. […] Immunoprecipitates were then analyzed by SDS-PAGE and stained for visualization. […]
Detection of CagA on protein blots: Protein extracted from control or alkynyl Fuc 1 analog-treated HC samples were subjected to cycloaddition labeling to label with biotin probe (protein 1 mg/ml with 0.1 mM azido biotin 6/0.1 mM Tris-thiazoleamine catalyst/1 mM CuSO4/2 mM sodium ascorbate in lysis buffer), followed by immunoprecipitation with anti-CagA antibody (Santa Cruz). The derivatized alkynyl Fuc tags/biotin labeling on CagA protein were detected by peroxidase-conjugated streptavidin on protein blot.

The subject of experiment [1] is Jurkat cells. Description: Flow cytometry of cell surface labeling after click with biotin azide probe 6 and fluorescein-conjugated streptavidin. Type of experiment: cell-based, human. As to the method: In another exemplary implementation, a method for labeling fucosylated glycoconjugates at the cell surface is disclosed. In one aspect, Jurkat cells are grown in the presence of derivatized alkynyl Fuc 1. After treatment, cells are subjected to CuAAC (click chemistry) to couple biotinylated azido probe 6 with any alkynyl Fuc-bearing glycoconjugates, and stained with fluorescein-conjugated streptavidin.
Labeling alkynyl Fuc-bearing cell surface glycoconjugates is illustrated in FIGS. 1A, 1B, 1C and 1D. FIGS. 1A, 1B, 1C and 1D show analysis of cells tagged with Fuc analogs analyzed by monitoring fluorescence intensity with flow cytometry after labeling with a biotin azide probe 6 and staining cells with fluorescein-conjugated streptavidin. […] Without being bound by theory, incorporation of the derivatized Fuc analogs into fucosylated glycoconjugates likely occurs via the Fuc salvage pathway.
It is now disclosed in one exemplary implementation of the disclosure that treating cells with derivatized alkynyl ManNAc 4 results in derivatized alkyne-bearing sialyl glycoconjugates. In one aspect of the method, cells are treated with 4 at various concentrations for one to 3 days. Modified sugar analogs and probes used in this disclosure are shown in Scheme 1. Tagging of the cell surface glycoconjugates by derivatized alkynyl ManNAc is illustrated in FIGS. 2A, 2B, 2C and 2D. FIGS. 2A, 2B, 2C and 2D show analysis of cells labeled with ManNAc analogs analyzed by monitoring fluorescence intensity with flow cytometry after clicking on the biotin azide probe 6 and staining cells with fluorescein-conjugated streptavidin. […] Compared with the MFI of controls, there was significant labeling on cells treated with derivatized alkynyl ManNAc 4, even at concentrations as low as 3 micromolar (15-fold increase). […] The optimal concentration of 4 for tagging sialyl glycoconjugates falls between 25 and 50 micromolar.
Jurkat cells were cultivated (2×10^6/10 ml) in RPMI medium 1640 supplemented with 10% FCS and various concentrations of peracetylated alkynyl sugars 1, 2, or 4 or native sugars 3 or 5, for 1-3 days at 37° C. Cells were then harvested, washed with 0.1% FCS/PBS, and resuspended (10^6 cells) in 100 microliters of click reaction solution (0.1 mM biotin probe 6 or fluorogenic probe 7/0.1 mM Tris-thiazoleamine catalyst/0.1 mM CuSO4/0.5 mM sodium ascorbate, in PBS). The reaction was incubated at room temperature for 30 min, and then the cells were washed twice with 0.1% FCS/PBS. Cells treated with biotin probe 6 were subsequently stained with fluorescein-conjugated streptavidin (0.5 microgram per sample in 50 microliters of 1% FCS/PBS) for 30 min at 4° C., and washed three times with 1% FCS/PBS. Data were acquired by BD LSR II with FACSDiva software, and were analyzed by CellQuestPro software (BD Biosciences). Detection of fluorescent adduct with probe 7 was monitored with a 408 nm laser and a 440/40 bandpass filter for excitation and emission, respectively.
A general note: In flow cytometry, cells or beads pass a laser one at a time.

The test system of experiment [2] is Jurkat cells. Description: Flow cytometry of cell surface labeling with fluorogenic coumarin probe 7. Type of experiment: cell-based, human. The note with it: 200 micromolar Fuc analogs or 25 micromolar ManNAc analogs, 3 days. From the text:
FIGS. 3A and 3B show tagging of cell surface glycans by derivatized alkynyl sugar analogs and subsequent labeling with probe 3-azido-7-hydroxycoumarin 7. Shown is flow cytometry analysis of Jurkat cells tagged with 200 micromolar derivatized alkynyl Fuc 1 shown in FIG. 3A or 25 micromolar alkynyl-derivatized ManNAc 4 shown in FIG. 3B for 3 days. The fluorescence intensity was detected after labeling with a coumarin probe 7. Filled histogram, cells treated with control sugar analog 3 or 5; open histogram, cell treated with alkynyl-derivatized sugar 1 or 4.
Recently, another click-activated azido-derivatized fluorescent probe, based on coumarin, was reported in the literature. In one aspect of the disclosure, the fluorogenic probe, 3-azido-7-hydroxycoumarin 7, is used as the coupling partner for alkynyl tags on labeled glycoconjugates.
Jurkat cells were cultivated (2×10^6/10 ml) in RPMI medium 1640 supplemented with 10% FCS and various concentrations of peracetylated alkynyl sugars 1, 2, or 4 or native sugars 3 or 5, for 1-3 days at 37° C. […] Data were acquired by BD LSR II with FACSDiva software, and were analyzed by CellQuestPro software (BD Biosciences). Detection of fluorescent adduct with probe 7 was monitored with a 408 nm laser and a 440/40 bandpass filter for excitation and emission, respectively.

For the substance “1,2,3,4-tetraacetyl alkynyl fucose [alkynyl Fuc 1]”, the “tagged fucosyl proteins isolated by anti-biotin immunoprecipitation” value in the experiment with H. pylori (200 micromolar, two days, strains HS, HD, HU, HC) is given as “several proteins were detected”. The “biotinylated Fuc tags on CagA protein (protein blot)” value with H. pylori (HC strain, anti-CagA immunoprecipitation) is “specific signal is only detected in MOE-tagged HC strain”. Moreover, the “saturation of incorporation, incubation time” value in the experiment with Jurkat cells [1] (200 micromolar) is “one”. Further, in the experiment with Jurkat cells [1] (200 micromolar, biotin probe 6/fluorescein-streptavidin), the “mean fluorescence intensity (MFI) compared with Fuc treated cells” value was 3 fold. For the same substance, in the experiment on Jurkat cells [1] (3 days), the “dose dependency of glycan tagging” value is on record as “dose dependent increase of fluorescence signal”. The “fluorescence intensity / cell surface signal compared with control sugar-treated cells” value with Jurkat cells [1] (biotin probe 6/fluorescein-streptavidin) is “increased fluorescence intensity”. Moreover, in the experiment on Jurkat cells [2], the “fluorescent labeling after reacting with 3-azido-7-hydroxycoumarin probe” value is listed as “significant fluorescent labeling”.
